Reference: ChEMBL document CHEMBL5346907, “Discovery of a novel oral type Ⅰ CDK8 inhibitor against acute myeloid leukemia” (Eur J Med Chem, 2023)
Active and inactive are the calls of the source. The rule behind the calls is not given here.

Columns and labels:
[1] = system: HCT-116; test: Downregulation of STAT5 S726 phosphorylation in human HCT-116 cells incubated for 12 hrs by Western blot analysis; type: functional, cell-based; settings: dose 1-10 µM
[2] = target: CDK12/Cyclin K (Homo sapiens) (UniProt O75909+Q9NYV4); test: Inhibition of CDK12/Cyclin K (unknown origin) at 1 uM preincubated for 10 mins followed by substrate addition measured for 60 to 120 mins by HTRF assay relative to control; type: protein-complex assay; settings: time 70-130 min
[3] = target: Fibroblast growth factor receptor 1 (Homo sapiens) (UniProt P11362); test: Inhibition of FGFR1 (unknown origin) at 1 uM preincubated for 10 mins followed by substrate addition measured for 60 to 120 mins by HTRF assay relative to control; settings: time 70-130 min
Chain of Fibroblast growth factor receptor 1 (Homo sapiens) (P11362 22-822 limits assumed): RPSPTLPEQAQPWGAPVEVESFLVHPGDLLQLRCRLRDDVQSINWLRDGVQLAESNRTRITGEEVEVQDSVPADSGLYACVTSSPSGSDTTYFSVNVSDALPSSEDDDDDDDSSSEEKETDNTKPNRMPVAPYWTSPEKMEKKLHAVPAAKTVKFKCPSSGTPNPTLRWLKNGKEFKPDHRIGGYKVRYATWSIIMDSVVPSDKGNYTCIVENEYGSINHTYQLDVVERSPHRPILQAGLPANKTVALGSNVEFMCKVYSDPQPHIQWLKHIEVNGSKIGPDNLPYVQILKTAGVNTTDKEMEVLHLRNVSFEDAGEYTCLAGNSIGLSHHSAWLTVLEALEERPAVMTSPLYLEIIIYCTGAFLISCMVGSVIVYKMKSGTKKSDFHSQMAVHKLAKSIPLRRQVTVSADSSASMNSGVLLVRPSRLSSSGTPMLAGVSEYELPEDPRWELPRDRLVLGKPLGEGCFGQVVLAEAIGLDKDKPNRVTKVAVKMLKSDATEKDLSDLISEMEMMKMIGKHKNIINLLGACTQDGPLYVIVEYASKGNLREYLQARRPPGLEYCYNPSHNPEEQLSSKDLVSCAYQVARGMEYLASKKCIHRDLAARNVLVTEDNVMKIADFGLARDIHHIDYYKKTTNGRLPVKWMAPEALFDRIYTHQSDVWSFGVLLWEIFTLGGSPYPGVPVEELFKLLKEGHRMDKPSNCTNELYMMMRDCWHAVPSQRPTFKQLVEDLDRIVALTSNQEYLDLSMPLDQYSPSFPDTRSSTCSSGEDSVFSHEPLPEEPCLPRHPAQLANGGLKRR

[4] = target: Tyrosine-protein kinase SRMS (Homo sapiens) (UniProt Q9H3Y6); test: Inhibition of SRM (unknown origin) at 1 uM preincubated for 10 mins followed by substrate addition measured for 60 to 120 mins by HTRF assay relative to control; settings: time 70-130 min
Chain of Tyrosine-protein kinase SRMS (Homo sapiens) (Q9H3Y6 whole entry, looked up): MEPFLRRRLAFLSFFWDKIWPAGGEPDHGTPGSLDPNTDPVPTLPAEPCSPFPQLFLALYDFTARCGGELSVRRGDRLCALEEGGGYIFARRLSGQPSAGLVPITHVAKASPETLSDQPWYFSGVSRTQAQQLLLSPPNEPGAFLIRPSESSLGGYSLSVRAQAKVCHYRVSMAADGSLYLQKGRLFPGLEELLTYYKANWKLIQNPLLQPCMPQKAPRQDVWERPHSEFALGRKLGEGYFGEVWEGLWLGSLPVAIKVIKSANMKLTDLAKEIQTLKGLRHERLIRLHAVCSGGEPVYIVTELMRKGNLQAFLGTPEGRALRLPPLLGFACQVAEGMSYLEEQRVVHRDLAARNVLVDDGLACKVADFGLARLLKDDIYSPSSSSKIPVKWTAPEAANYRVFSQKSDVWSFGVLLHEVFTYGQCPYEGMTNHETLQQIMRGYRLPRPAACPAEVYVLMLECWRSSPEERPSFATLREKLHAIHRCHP

[5] = target: Ephrin type-B receptor 3 (Homo sapiens) (UniProt P54753); test: Inhibition of EPHB3 (unknown origin) at 1 uM preincubated for 10 mins followed by substrate addition measured for 60 to 120 mins by HTRF assay relative to control; settings: time 70-130 min
[6] = target: Tyrosine-protein kinase TXK (Homo sapiens) (UniProt P42681); test: Inhibition of TXK (unknown origin) at 1 uM preincubated for 10 mins followed by substrate addition measured for 60 to 120 mins by HTRF assay relative to control; settings: time 70-130 min
[7] = target: Cyclin-dependent kinase 5/CDK5 activator 1 (Homo sapiens) (UniProt Q00535+Q15078); test: Inhibition of CDK5/p35NCK (unknown origin) at 1 uM preincubated for 10 mins followed by substrate addition measured for 60 to 120 mins by HTRF assay relative to control; type: protein-complex assay; settings: time 70-130 min
Chain of Cyclin-dependent kinase 5/CDK5 activator 1 (Homo sapiens) (Q00535 whole entry): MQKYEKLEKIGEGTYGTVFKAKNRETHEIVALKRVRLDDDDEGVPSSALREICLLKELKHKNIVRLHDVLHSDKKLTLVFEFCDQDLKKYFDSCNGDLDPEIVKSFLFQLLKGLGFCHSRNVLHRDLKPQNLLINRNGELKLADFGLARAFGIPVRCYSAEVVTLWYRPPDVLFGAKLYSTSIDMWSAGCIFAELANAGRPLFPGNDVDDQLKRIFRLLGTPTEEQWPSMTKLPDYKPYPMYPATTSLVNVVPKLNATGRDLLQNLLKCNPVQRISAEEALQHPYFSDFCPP
Chain of Cyclin-dependent kinase 5/CDK5 activator 1 (Homo sapiens) (Q15078 99-307 partner limits assumed): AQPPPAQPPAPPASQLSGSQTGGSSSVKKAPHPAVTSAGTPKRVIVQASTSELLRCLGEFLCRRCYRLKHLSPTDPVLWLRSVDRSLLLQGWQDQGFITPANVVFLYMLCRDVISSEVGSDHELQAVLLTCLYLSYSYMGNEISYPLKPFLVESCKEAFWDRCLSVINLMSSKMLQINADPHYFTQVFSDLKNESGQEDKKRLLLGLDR

[8] = system: SW480; test: Antiproliferative activity against human SW480 cells incubated for 48 hrs by CCK8 assay; type: functional
[9] = target: Receptor tyrosine-protein kinase erbB-4 (Homo sapiens) (UniProt Q15303); test: Inhibition of HER4 (unknown origin) at 1 uM preincubated for 10 mins followed by substrate addition measured for 60 to 120 mins by HTRF assay relative to control; settings: time 70-130 min
Chain of Receptor tyrosine-protein kinase erbB-4 (Homo sapiens) (Q15303 whole entry): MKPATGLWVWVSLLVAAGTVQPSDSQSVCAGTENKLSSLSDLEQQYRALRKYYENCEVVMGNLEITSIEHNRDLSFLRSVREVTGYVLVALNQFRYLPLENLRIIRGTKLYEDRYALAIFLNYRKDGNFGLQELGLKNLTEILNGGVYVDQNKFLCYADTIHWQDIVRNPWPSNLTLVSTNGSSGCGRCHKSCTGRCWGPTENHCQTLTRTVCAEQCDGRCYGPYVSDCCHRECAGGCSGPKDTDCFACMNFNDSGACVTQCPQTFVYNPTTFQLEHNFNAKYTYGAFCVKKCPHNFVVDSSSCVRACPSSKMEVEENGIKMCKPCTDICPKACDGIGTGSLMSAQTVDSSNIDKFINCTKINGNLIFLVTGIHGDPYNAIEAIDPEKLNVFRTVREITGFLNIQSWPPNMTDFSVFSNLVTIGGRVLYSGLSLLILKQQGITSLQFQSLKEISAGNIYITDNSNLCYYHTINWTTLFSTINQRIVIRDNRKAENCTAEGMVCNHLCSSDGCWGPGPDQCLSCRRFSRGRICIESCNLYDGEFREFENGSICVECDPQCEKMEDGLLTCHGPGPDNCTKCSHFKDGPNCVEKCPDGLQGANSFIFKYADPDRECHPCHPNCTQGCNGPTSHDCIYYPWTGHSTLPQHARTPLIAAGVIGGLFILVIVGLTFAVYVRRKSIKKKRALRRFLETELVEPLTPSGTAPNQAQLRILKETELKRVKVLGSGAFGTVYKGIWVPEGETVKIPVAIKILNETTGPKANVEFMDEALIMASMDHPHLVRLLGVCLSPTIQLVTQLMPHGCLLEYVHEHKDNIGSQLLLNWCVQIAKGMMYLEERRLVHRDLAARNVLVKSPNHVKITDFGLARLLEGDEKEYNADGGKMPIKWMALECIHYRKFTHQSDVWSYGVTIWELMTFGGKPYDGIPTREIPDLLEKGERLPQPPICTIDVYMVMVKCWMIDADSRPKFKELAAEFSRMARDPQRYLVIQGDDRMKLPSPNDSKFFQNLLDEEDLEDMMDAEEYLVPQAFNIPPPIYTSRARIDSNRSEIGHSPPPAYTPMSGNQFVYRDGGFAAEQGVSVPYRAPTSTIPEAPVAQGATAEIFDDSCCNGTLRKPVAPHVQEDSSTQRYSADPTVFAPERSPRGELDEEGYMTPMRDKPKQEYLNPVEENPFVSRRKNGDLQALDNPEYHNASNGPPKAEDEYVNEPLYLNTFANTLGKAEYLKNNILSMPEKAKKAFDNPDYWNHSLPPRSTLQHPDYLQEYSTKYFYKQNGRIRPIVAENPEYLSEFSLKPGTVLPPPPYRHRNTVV

[10] = Acute toxicity in C57BL/6 mouse assessed as histopathological change in liver at 2000 mg/kg, IG measured for 14 days by H&E staining based analysis; type: organism-based; settings: in vivo, po, 336 h, time 14 day
[11] = system: HL-60; test: Induction of apoptosis in human HL-60 cells assessed as late apoptotic cells at 1 uM incubated for 48 hrs by annexin V-FITC/PI staining based flow cytometry (reference value: 1.07 %); type: functional
[12] = system: HL-60; test: Induction of apoptosis in human HL-60 cells assessed as necrotic cells at 10 uM incubated for 48 hrs by annexin V-FITC/PI staining based flow cytometry (reference value: 0.26 %); type: functional
[13] = target: Tyrosine-protein kinase HCK (Homo sapiens) (UniProt P08631); test: Inhibition of HCK (unknown origin) at 1 uM preincubated for 10 mins followed by substrate addition measured for 60 to 120 mins by HTRF assay relative to control; settings: time 70-130 min
[14] = Acute toxicity in C57BL/6 mouse assessed as histopathological change in spleen at 2000 mg/kg, IG measured for 14 days by H&E staining based analysis; type: organism-based; settings: in vivo, po, 336 h, time 14 day
[15] = Tmax in Sprague-Dawley rat at 10 mg/kg, po; type: ADME, organism-based; settings: in vivo
[16] = system: HT-29; test: Antiproliferative activity against human HT-29 cells incubated for 48 hrs by CCK8 assay; type: functional
[17] = target: CDK6/cyclin D1 (Homo sapiens) (UniProt P24385+Q00534); test: Inhibition of CDK6/Cyclin D1 (unknown origin) at 1 uM preincubated for 10 mins followed by substrate addition measured for 60 to 120 mins by HTRF assay relative to control; type: protein-complex assay; settings: time 70-130 min
[18] = target: Ephrin type-A receptor 4 (Homo sapiens) (UniProt P54764); test: Inhibition of EPHA4 (unknown origin) at 1 uM preincubated for 10 mins followed by substrate addition measured for 60 to 120 mins by HTRF assay relative to control; settings: time 70-130 min
[19] = system: HL-60; test: Antiproliferative activity against human HL-60 cells incubated for 48 hrs by CCK8 assay; type: functional
[20] = system: HCT-116; test: Antiproliferative activity against human HCT-116 cells incubated for 48 hrs by CCK8 assay; type: functional
[21] = target: Tyrosine-protein kinase SYK (Homo sapiens) (UniProt P43405); test: Inhibition of SYK (unknown origin) at 1 uM preincubated for 10 mins followed by substrate addition measured for 60 to 120 mins by HTRF assay relative to control; settings: time 70-130 min
[22] = Bioavailability in Sprague-Dawley rat at 10 mg/kg, po; type: ADME, organism-based; settings: in vivo
[23] = target: Tyrosine-protein kinase JAK1 (Homo sapiens) (UniProt P23458); test: Inhibition of JAK1 (unknown origin) at 1 uM preincubated for 10 mins followed by substrate addition measured for 60 to 120 mins by HTRF assay relative to control; settings: time 70-130 min
Chain of Tyrosine-protein kinase JAK1 (Homo sapiens) (P23458 whole entry): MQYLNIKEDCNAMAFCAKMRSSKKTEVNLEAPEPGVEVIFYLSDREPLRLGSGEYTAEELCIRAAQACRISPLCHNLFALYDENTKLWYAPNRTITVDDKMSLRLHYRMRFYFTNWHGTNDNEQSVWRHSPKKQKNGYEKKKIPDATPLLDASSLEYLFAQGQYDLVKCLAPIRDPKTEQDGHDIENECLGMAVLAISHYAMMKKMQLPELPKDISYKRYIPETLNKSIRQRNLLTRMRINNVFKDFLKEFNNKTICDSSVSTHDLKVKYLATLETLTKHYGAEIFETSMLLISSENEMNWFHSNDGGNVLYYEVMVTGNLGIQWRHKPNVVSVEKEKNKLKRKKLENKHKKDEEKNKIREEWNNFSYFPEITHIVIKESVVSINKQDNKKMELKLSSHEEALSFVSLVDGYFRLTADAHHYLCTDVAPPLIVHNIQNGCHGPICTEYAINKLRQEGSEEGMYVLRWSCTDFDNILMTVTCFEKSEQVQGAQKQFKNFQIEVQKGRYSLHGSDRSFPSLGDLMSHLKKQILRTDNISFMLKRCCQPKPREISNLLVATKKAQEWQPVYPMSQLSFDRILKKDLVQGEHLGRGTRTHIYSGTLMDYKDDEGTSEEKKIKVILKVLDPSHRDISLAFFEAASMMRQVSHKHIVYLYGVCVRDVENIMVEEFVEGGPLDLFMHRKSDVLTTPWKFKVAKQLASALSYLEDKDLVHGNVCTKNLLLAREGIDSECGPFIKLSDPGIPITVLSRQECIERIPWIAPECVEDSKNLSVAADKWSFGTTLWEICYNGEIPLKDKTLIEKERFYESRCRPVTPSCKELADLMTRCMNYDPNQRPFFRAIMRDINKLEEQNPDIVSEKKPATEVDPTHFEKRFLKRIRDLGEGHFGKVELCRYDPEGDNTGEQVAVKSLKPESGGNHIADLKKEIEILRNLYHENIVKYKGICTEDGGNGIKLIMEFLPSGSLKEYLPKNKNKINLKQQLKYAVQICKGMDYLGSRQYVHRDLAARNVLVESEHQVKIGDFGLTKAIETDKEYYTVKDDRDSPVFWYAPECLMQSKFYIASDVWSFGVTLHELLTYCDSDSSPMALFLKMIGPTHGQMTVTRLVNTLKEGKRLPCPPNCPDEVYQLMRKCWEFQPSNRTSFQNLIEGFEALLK

[24] = target: NT-3 growth factor receptor (Homo sapiens) (UniProt Q16288); test: Inhibition of TRKC (unknown origin) at 1 uM preincubated for 10 mins followed by substrate addition measured for 60 to 120 mins by HTRF assay relative to control; settings: time 70-130 min
Chain of NT-3 growth factor receptor (Homo sapiens) (Q16288 32-839 limits assumed): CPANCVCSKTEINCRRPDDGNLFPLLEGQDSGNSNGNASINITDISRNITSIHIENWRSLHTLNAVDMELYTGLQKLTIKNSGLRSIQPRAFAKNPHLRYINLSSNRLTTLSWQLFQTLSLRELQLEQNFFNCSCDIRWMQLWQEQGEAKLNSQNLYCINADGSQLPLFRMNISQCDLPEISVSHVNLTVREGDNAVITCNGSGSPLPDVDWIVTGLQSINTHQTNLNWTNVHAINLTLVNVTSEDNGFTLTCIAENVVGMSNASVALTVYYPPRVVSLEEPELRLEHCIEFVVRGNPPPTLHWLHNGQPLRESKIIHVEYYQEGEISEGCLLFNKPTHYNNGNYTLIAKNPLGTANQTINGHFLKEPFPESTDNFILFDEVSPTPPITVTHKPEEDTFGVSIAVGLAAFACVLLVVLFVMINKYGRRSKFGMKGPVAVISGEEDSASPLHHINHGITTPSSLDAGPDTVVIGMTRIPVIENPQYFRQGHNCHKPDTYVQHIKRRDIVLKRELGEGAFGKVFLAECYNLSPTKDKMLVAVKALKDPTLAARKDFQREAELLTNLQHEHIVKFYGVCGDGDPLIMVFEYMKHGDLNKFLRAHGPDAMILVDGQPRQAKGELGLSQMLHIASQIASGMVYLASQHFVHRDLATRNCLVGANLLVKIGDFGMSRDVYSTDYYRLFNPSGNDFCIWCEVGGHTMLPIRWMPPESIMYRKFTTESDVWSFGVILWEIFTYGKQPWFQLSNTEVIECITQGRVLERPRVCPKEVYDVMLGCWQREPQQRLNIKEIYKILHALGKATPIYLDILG

[25] = target: CDK8/Cyclin C (Homo sapiens) (UniProt P49336+P24863); test: Inhibition of CDK8/Cyclin C (unknown origin) at 1 uM preincubated for 10 mins followed by substrate addition measured for 60 to 120 mins by HTRF assay relative to control; type: protein-complex assay; settings: time 70-130 min
[26] = target: Tyrosine-protein kinase Fgr (Homo sapiens) (UniProt P09769); test: Inhibition of FGR (unknown origin) at 1 uM preincubated for 10 mins followed by substrate addition measured for 60 to 120 mins by HTRF assay relative to control; settings: time 70-130 min
[27] = Toxicity in AML […] mouse model allografted with mouse C1498 cells assessed as body weight loss at 40 to 80 mg/kg, po administered daily for 15 days measured on every 2 days; type: organism-based; settings: in vivo, 360 h, dose 40-80 mg/kg, time 15 day
[28] = target: Tyrosine-protein kinase receptor UFO (Homo sapiens) (UniProt P30530); test: Inhibition of AXL (unknown origin) at 1 uM preincubated for 10 mins followed by substrate addition measured for 60 to 120 mins by HTRF assay relative to control; settings: time 70-130 min
[29] = target: Vascular endothelial growth factor receptor 3 (Homo sapiens) (UniProt P35916); test: Inhibition of FLT4 (unknown origin) at 1 uM preincubated for 10 mins followed by substrate addition measured for 60 to 120 mins by HTRF assay relative to control; settings: time 70-130 min
[30] = target: Cyclin-dependent kinase 8 (Homo sapiens, UniProt P49336); test: Binding affinity to CDK8 in human HCT-116 cells upto 4 uM incubated for 12 hrs by biotin pull down based Western blot analysis; type: cell-based
[31] = AUC (0 to infinity) in Sprague-Dawley rat at 10 mg/kg, po; type: ADME, organism-based; parameters: dose 10 mg/kg, route po; settings: in vivo
[32] = target: Macrophage colony-stimulating factor 1 receptor (Homo sapiens) (UniProt P07333); test: Inhibition of CSF1R (unknown origin) at 1 uM preincubated for 10 mins followed by substrate addition measured for 60 to 120 mins by HTRF assay relative to control; settings: time 70-130 min

## NC(=O)c1cccc(-c2cnc3[nH]ccc3c2)c1
[1]
  Activity: Dose-Dependent Effect
[2]
  inhibition: 0.16%
[3]
  inhibition: 28.1%
[4]
  inhibition: 0%
[5]
  inhibition: 13.5%
[6]
  inhibition: 0%
[7]
  inhibition: 15.8%
[8]
  GI50: > 50 µM
[9]
  inhibition: 0%
[10]
  Activity: Non-Toxic
[11]
  Activity: 38%
[12]
  Activity: 1.79%
[13]
  inhibition: 2.33%
[14]
  Activity: Non-Toxic
[15]
  Tmax: 1 h
[16]
  GI50: > 50 µM
[17]
  inhibition: 0.37%
[18]
  inhibition: 1.96%
[19]
  GI50: 1 µM
[20]
  GI50: > 50 µM
[21]
  inhibition: 4.7%
[22]
  bioavailability: 28%
[23]
  inhibition: 31.5%
[24]
  inhibition: 10.8%
[25]
  inhibition: 38.9%
[26]
  inhibition: 14.9%
[27]
  Activity: Non-Toxic
[28]
  inhibition: 12.5%
[29]
  inhibition: 10.7%
[30]
  Activity: Active
[31]
  AUC(0-inf): 434 ng·h/mL
[32]
  inhibition: 0%
